Relative viability data for 6 cell lines are collected here from the supplement of paper PMC10307832.

Holding throughout (assay): relative viability (nuclei count vs DMSO), 5 days (fraction); higher = more cells survive
Compound in assay [1]: CC1=CC=C(C=C1)C(=O)CN2C3=C(CCCC3)SC2=N [Pifithrin_alpha] + Cc1nc(Nc2ncc(C(=O)Nc3c(C)cccc3Cl)s2)cc(N2CCN(CCO)CC2)n1 [Dasatinib] (partner 0.075 µM)
An outline of the steps: (§1)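 Nuclei were stained with Hoechst during a one-step fixation (final 0.05% Triton X-100, 1% formaldehyde, 1 ug/ml Hoechst) carried out 5 days after dosing, then counted on 4× images. The cells, lung cancer lines in 1536-well plates, had been dosed by pin tool the day after seeding with one drug alone or a fixed anchor-drug dose plus five library-drug doses (not always all listed) in √10 steps. Relative viability is the nuclei count in treated wells divided by that in vehicle wells, and each value is the median of duplicate plates.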

Compound in the assay “Axitinib + Palbociclib”: CNC(=O)c1ccccc1Sc1ccc2c(/C=C/c3ccccn3)n[nH]c2c1 [Axitinib] + CC(=O)c1c(C)c2cnc(Nc3ccc(N4CCNCC4)cn3)nc2n(C2CCCC2)c1=O [Palbociclib] (partner 0.5 µM)
An outline of the steps: as §1

Compound in the assay “Axitinib + Navitoclax”: CNC(=O)c1ccccc1Sc1ccc2c(/C=C/c3ccccn3)n[nH]c2c1 [Axitinib] + CC1(C)CCC(c2ccc(Cl)cc2)=C(CN2CCN(c3ccc(C(=O)NS(=O)(=O)c4ccc(N[C@H](CCN5CCOCC5)CSc5ccccc5)c(S(=O)(=O)C(F)(F)F)c4)cc3)CC2)C1 [Navitoclax] (partner 0.5 µM)
Put shortly:
as §1

Compound in the assay “Axitinib + Pemetrexed”: CNC(=O)c1ccccc1Sc1ccc2c(/C=C/c3ccccn3)n[nH]c2c1 [Axitinib] + Nc1nc2[nH]cc(CCc3ccc(C(=O)N[C@@H](CCC(=O)O)C(=O)O)cc3)c2c(=O)[nH]1 [Pemetrexed] (partner 0.2 µM)
Put shortly: as §1

With NCI-H2170, the relative viability in assay [1] (first compound 1 µM) stood at 0.68; in assay [1] (first compound 3.162 µM), 0.467; in assay [1] (first compound 10 µM), 0.512; in assay [1] (first compound 31.62 µM), 0.39; in assay [1] (first compound 100 µM) it was 0.404; with Axitinib + Palbociclib (first compound 0.005 µM), 0.494. The relative viability was 0.438 with Axitinib + Palbociclib (first compound 0.01581 µM); 0.385 in the assay with Axitinib + Palbociclib (first compound 0.05 µM); 0.444 with Axitinib + Palbociclib (first compound 0.1581 µM); 0.435 with Axitinib + Palbociclib (first compound 0.5 µM); 0.661 with Axitinib + Navitoclax (first compound 0.005 µM); 0.715 in the assay with Axitinib + Navitoclax (first compound 0.01581 µM). Moreover, the relative viability came out at 0.621 with Axitinib + Navitoclax (first compound 0.05 µM); 0.617 in the assay with Axitinib + Navitoclax (first compound 0.1581 µM); 0.707 with Axitinib + Navitoclax (first compound 0.5 µM); 0.281 with Axitinib + Pemetrexed (first compound 0.005 µM); 0.252 in the assay with Axitinib + Pemetrexed (first compound 0.01581 µM); 0.261 with Axitinib + Pemetrexed (first compound 0.05 µM). The relative viability in the assay with Axitinib + Pemetrexed (first compound 0.1581 µM) and in the assay with Axitinib + Pemetrexed (first compound 0.5 µM) was 0.27 each time.

As to NCI-H2228, the relative viability stood at 0.516 in assay [1] (first compound 1 µM); 0.471 in assay [1] (first compound 3.162 µM); 0.421 in assay [1] (first compound 10 µM); 0.425 in assay [1] (first compound 31.62 µM); 0.363 in assay [1] (first compound 100 µM); 0.926 with Axitinib + Palbociclib (first compound 0.005 µM). Further, the relative viability with Axitinib + Palbociclib (first compound 0.01581 µM) was determined as 0.664; with Axitinib + Palbociclib (first compound 0.05 µM), 0.615; with Axitinib + Palbociclib (first compound 0.1581 µM) it was 0.614; with Axitinib + Palbociclib (first compound 0.5 µM), 0.882; with Axitinib + Navitoclax (first compound 0.005 µM), 0.698; with Axitinib + Navitoclax (first compound 0.01581 µM), 0.893. Also, the relative viability in the assay with Axitinib + Navitoclax (first compound 0.05 µM) was 0.847; with Axitinib + Navitoclax (first compound 0.1581 µM) it was 0.99; with Axitinib + Navitoclax (first compound 0.5 µM), 1.19; with Axitinib + Pemetrexed (first compound 0.005 µM), 0.335; with Axitinib + Pemetrexed (first compound 0.01581 µM) it was 0.306; in the assay with Axitinib + Pemetrexed (first compound 0.05 µM), 0.307. Moreover, the relative viability in the assay with Axitinib + Pemetrexed (first compound 0.1581 µM) is 0.374; in the assay with Axitinib + Pemetrexed (first compound 0.5 µM) it was 0.341.

As for NCI-H2347, the relative viability in assay [1] (first compound 1 µM) came out at 0.273; in assay [1] (first compound 3.162 µM), 0.309; in assay [1] (first compound 10 µM) it was 0.301; in assay [1] (first compound 31.62 µM) it was 0.333; in assay [1] (first compound 100 µM) it was 0.291; in the assay with Axitinib + Palbociclib (first compound 0.005 µM), 0.42. The relative viability in the assay with Axitinib + Palbociclib (first compound 0.01581 µM) worked out at 0.411; with Axitinib + Palbociclib (first compound 0.05 µM), 0.436; in the assay with Axitinib + Palbociclib (first compound 0.1581 µM) it was 0.434; with Axitinib + Palbociclib (first compound 0.5 µM) it was 0.362; with Axitinib + Navitoclax (first compound 0.005 µM), 0.793; in the assay with Axitinib + Navitoclax (first compound 0.01581 µM), 0.857. Also, the relative viability with Axitinib + Navitoclax (first compound 0.05 µM) is 0.902; with Axitinib + Navitoclax (first compound 0.1581 µM), 0.818; in the assay with Axitinib + Navitoclax (first compound 0.5 µM), 0.934; in the assay with Axitinib + Pemetrexed (first compound 0.005 µM), 0.443; with Axitinib + Pemetrexed (first compound 0.01581 µM), 0.39; in the assay with Axitinib + Pemetrexed (first compound 0.05 µM), 0.441. The relative viability with Axitinib + Pemetrexed (first compound 0.1581 µM) was 0.458; with Axitinib + Pemetrexed (first compound 0.5 µM), 0.446.

In the case of NCI-H2405, the relative viability is 0.156 in assay [1] (first compound 1 µM); 0.197 in assay [1] (first compound 3.162 µM); 0.205 in assay [1] (first compound 10 µM); 0.188 in assay [1] (first compound 31.62 µM); 0.196 in assay [1] (first compound 100 µM); 0.505 with Axitinib + Palbociclib (first compound 0.005 µM). Also, the relative viability in the assay with Axitinib + Palbociclib (first compound 0.01581 µM) stood at 0.524; with Axitinib + Palbociclib (first compound 0.05 µM), 0.542; with Axitinib + Palbociclib (first compound 0.1581 µM) it was 0.517; in the assay with Axitinib + Palbociclib (first compound 0.5 µM), 0.537; with Axitinib + Navitoclax (first compound 0.005 µM) it was 0.913; in the assay with Axitinib + Navitoclax (first compound 0.01581 µM), 0.933. In addition, the relative viability with Axitinib + Navitoclax (first compound 0.05 µM) stood at 0.881; in the assay with Axitinib + Navitoclax (first compound 0.1581 µM), 0.857; in the assay with Axitinib + Navitoclax (first compound 0.5 µM) it was 1.11; with Axitinib + Pemetrexed (first compound 0.005 µM), 0.93; with Axitinib + Pemetrexed (first compound 0.01581 µM) it was 1.28; in the assay with Axitinib + Pemetrexed (first compound 0.05 µM), 1.22. Also, the values for the relative viability in the assay with Axitinib + Pemetrexed (first compound 0.1581 µM) and in the assay with Axitinib + Pemetrexed (first compound 0.5 µM) were 1.02 and 1.15, respectively.

On to NCI-H3122, for which the relative viability came to 0.82 in assay [1] (first compound 1 µM); 0.901 in assay [1] (first compound 3.162 µM); 0.732 in assay [1] (first compound 10 µM); 0.758 in assay [1] (first compound 100 µM); 0.171 with Axitinib + Palbociclib (first compound 0.005 µM); 0.198 with Axitinib + Palbociclib (first compound 0.01581 µM). Further, the relative viability was 0.205 in the assay with Axitinib + Palbociclib (first compound 0.05 µM); 0.206 with Axitinib + Palbociclib (first compound 0.1581 µM); 0.184 with Axitinib + Palbociclib (first compound 0.5 µM); 0.992 in the assay with Axitinib + Navitoclax (first compound 0.005 µM); 0.956 in the assay with Axitinib + Navitoclax (first compound 0.01581 µM); 1.05 in the assay with Axitinib + Navitoclax (first compound 0.05 µM). The relative viability with Axitinib + Navitoclax (first compound 0.1581 µM) worked out at 1.02; in the assay with Axitinib + Navitoclax (first compound 0.5 µM), 1.04; with Axitinib + Pemetrexed (first compound 0.005 µM) it was 0.218; with Axitinib + Pemetrexed (first compound 0.01581 µM), 0.196; with Axitinib + Pemetrexed (first compound 0.05 µM), 0.219; in the assay with Axitinib + Pemetrexed (first compound 0.1581 µM) it was 0.193. Besides, the relative viability with Axitinib + Pemetrexed (first compound 0.5 µM) stood at 0.212.

Consider PC-3 [JPC-3], for which the relative viability in assay [1] (first compound 1 µM) was found to be 0.971; in assay [1] (first compound 3.162 µM), 0.928; in assay [1] (first compound 10 µM), 0.671; in assay [1] (first compound 31.62 µM) it was 0.933; in assay [1] (first compound 100 µM) it was 0.917; with Axitinib + Palbociclib (first compound 0.005 µM), 0.558. In addition, the relative viability was found to be 0.556 with Axitinib + Palbociclib (first compound 0.05 µM); 0.603 in the assay with Axitinib + Palbociclib (first compound 0.1581 µM); 0.61 with Axitinib + Palbociclib (first compound 0.5 µM); 0.827 in the assay with Axitinib + Navitoclax (first compound 0.005 µM); 0.787 in the assay with Axitinib + Navitoclax (first compound 0.05 µM); 0.82 in the assay with Axitinib + Navitoclax (first compound 0.1581 µM). Further, the relative viability with Axitinib + Navitoclax (first compound 0.5 µM) is 0.928; with Axitinib + Pemetrexed (first compound 0.005 µM) it was 0.963; with Axitinib + Pemetrexed (first compound 0.05 µM), 1.32; in the assay with Axitinib + Pemetrexed (first compound 0.1581 µM), 1.06; with Axitinib + Pemetrexed (first compound 0.5 µM), 1.16.
